Literature values in US12048769B2, “Methods for administering weight loss medications” (priority 2006, dated 2024).
Values belong to the compound of their own block, whether it stands above or below them.

Legend:
[1] = in vivo
[2] = in vivo; remark: listed apart in the source
[3] = tested on: patients presenting primary obesity; settings: comparable to marketed weight loss medications

bioavailability (in vivo): approximately 72%
time to complete excretion (in vivo): several weeks
plasma protein binding (mostly albumin): highly bound
elimination half-life in liver disease (those with liver disease): prolonged
physiological half life [1]: about 24 hours
Structure (SMILES): CNCCC(Oc1ccc(C(F)(F)F)cc1)c1ccccc1 (stereo not drawn) [Fluoxetine, N-methyl-3-phenyl-3-[4-(trifluoromethyl)phenoxy]-propan-1-amine]

Structure (SMILES): Cc1cc2c(s1)Nc1ccccc1N=C2N1CCN(C)CC1 [Olanzapine, 2-methyl-4-(4-methyl-1-piperazinyl)-10H-thieno[2,3-b][1,5]benzodiazepine]
effect of food on bioavailability [2]: not affected by food
first pass metabolism [2]: extensive first pass metabolism
kinetics [2]: linear kinetics
time to steady state plasma concentrations [2]: about a week

inhibitory effect on carbonic anhydrase (carbonic anhydrase): weak inhibitory effect
Structure (SMILES): NS(=O)(=O)Cc1noc2ccccc12 [Zonisamide]
weight loss [3]: significant weight loss

elimination half-life (after long-term use, healthy adults): 16 days
Structure (SMILES): NCCC(Oc1ccc(C(F)(F)F)cc1)c1ccccc1 (stereo not drawn) [norfluoxetine]
